Measurements: ChEMBL document CHEMBL1136945, “Antimalarial activity of thiosemicarbazones and purine derived nitriles” (Bioorg Med Chem Lett, 2009)
pEC50: −log10 of the molar value.

Legend:
Type in all cases: functional, organism-based
Plasmodium falciparum [1] = assay: Antimalarial activity as reduced parasitaemia after 72 hrs against chloroquine-sensitive Plasmodium falciparum 3D7 infected human O+ erythrocytes by DNA stain with pepstatin; conditions: 3D7, 72 h
Plasmodium falciparum [2] = assay: (§1) Antimalarial activity as reduced parasitaemia after 72 hrs against chloroquine-resistant Plasmodium falciparum K1 infected human O+ erythrocytes by DNA stain without pepstatin; conditions: K1, 72 h
Plasmodium falciparum [3] = assay: as §1; conditions: K1, 72 h; remark: listed apart in the source
Plasmodium falciparum [4] = assay: Antimalarial activity as reduced parasitaemia after 72 hrs against chloroquine-sensitive Plasmodium falciparum 3D7 infected human O+ erythrocytes by DNA stain without pepstatin; conditions: 3D7, 72 h

Compound	pEC50 (Plasmodium falciparum [1])	pEC50 (Plasmodium falciparum [2])	pEC50 (Plasmodium falciparum [3])	pEC50 (Plasmodium falciparum [4])
CCCC/C(=N\NC(N)=S)c1ccc(Cl)c(Cl)c1	< 4.52	< 4.52	< 4.52	< 4.52
Cc1ccc(/C(=N/NC(N)=S)c2ccccc2)cc1	< 4.52	< 4.52	< 4.52	< 4.52
Cc1ccc(/C(=N/NC(N)=S)c2cccc(C(F)(F)F)c2)cc1	4.52	< 4.52	< 4.52	< 4.52
N#Cc1nc(NCc2ccc(-c3ccco3)cc2)c2ncn(CCCO)c2n1	4.92	4.89	4.92	4.74
Cc1cccc(/C(=N/NC(N)=S)c2cccc(F)c2)c1	< 4.52	< 4.52	< 4.52	< 4.52
N#Cc1nc(NCc2ccc(-c3cccnc3)cc2)c2ncn(CCCO)c2n1	< 4.52	< 4.52	< 4.52	< 4.52
Cc1ccc(/C(=N/NC(N)=S)c2cc(Cl)cc(Cl)c2)cc1	4.52	< 4.52	< 4.52	< 4.52
COC(=O)c1cccc(-c2cccc(CNc3nc(C#N)nc4c3ncn4CCCO)c2)c1	< 4.52	< 4.52	< 4.52	< 4.52
NC(=S)N/N=C(\c1cc(Cl)cc(Cl)c1)c1cccs1	4.52	< 4.52	< 4.52	< 4.52
CC(=O)Nc1cccc(CNc2nc(C#N)nc3c2ncn3CCCO)c1	5.22	4.82	4.96	4.82
C=Cc1cccc(-c2cccc(CNc3nc(C#N)nc4c3ncn4CCCO)c2)c1	< 4.52	< 4.52	< 4.52	< 4.52
C=Cc1ccc(-c2cccc(CNc3nc(C#N)nc4c3ncn4CCCO)c2)cc1	< 4.52	< 4.52	< 4.52	< 4.52
N#Cc1nc(NCc2cccc(-c3ccc4ccccc4c3)c2)c2ncn(CCCO)c2n1	4.52	< 4.52	< 4.52	< 4.52
N#Cc1nc(NCc2cccc(-c3ccco3)c2)c2ncn(CCCO)c2n1	< 4.52	< 4.52	< 4.52	< 4.52
N#Cc1nc(NCc2cccc(-c3ccsc3)c2)c2ncn(CCCO)c2n1	< 4.52	< 4.52	< 4.52	< 4.52
N#Cc1nc(NCc2cccc(-c3ccoc3)c2)c2ncn(CCCO)c2n1	< 4.52	< 4.52	< 4.52	< 4.52
CC(C)Oc1c(Br)cccc1-c1cccc(CNc2nc(C#N)nc3c2ncn3CCCO)c1	4.52	< 4.52	< 4.52	4.52
COc1cc(OC)c(-c2cccc(CNc3nc(C#N)nc4c3ncn4CCCO)c2)cn1	< 4.52	< 4.52	< 4.52	< 4.52
N#Cc1nc(NCc2ccc(-c3cccc(Cl)c3)cc2)c2ncn(CCCO)c2n1	4.85	4.70	4.74	4.70
N#Cc1nc(NCc2ccc(Cl)c(Cl)c2)c2c(n1)N(Cc1cccc(C(F)(F)F)c1)CN2	4.52	4.52	4.62	4.57
COc1ccc(-c2cccc(CNc3nc(C#N)nc4c3ncn4CCCO)c2)cc1	< 4.52	< 4.52	< 4.52	< 4.52
N#Cc1nc(NCc2cccc(-c3ccccc3)c2)c2ncn(CCCO)c2n1	4.52	< 4.52	< 4.52	< 4.52
N#Cc1nc(NCc2cccc(-c3cccnc3)c2)c2ncn(CCCO)c2n1	< 4.52	< 4.52	< 4.52	< 4.52
N#Cc1nc(NCc2cccc(-c3cccs3)c2)c2ncn(CCCO)c2n1	< 4.52	< 4.52	< 4.52	< 4.52
N#Cc1nc(NCc2cccc(-c3cc4ccccc4n3S(=O)(=O)c3ccccc3)c2)c2ncn(CCCO)c2n1	4.52	< 4.52	4.52	< 4.52
N#Cc1nc(NCc2cccc(-c3cn(S(=O)(=O)c4ccccc4)c4ccccc34)c2)c2ncn(CCCO)c2n1	4.52	< 4.52	4.52	< 4.52
N#Cc1nc(NCc2cccc(-c3ccc4cc[nH]c4c3)c2)c2ncn(CCCO)c2n1	< 4.52	< 4.52	< 4.52	< 4.52
